Laboratory results: the C3SDB collision cross section collection
“And” between values parts separate entries of the source, which are not always exact repeats. Equal values may be shown once.

How the values were obtained:
[1] = instrument: DT, single field, calibrated with ESI Low Concentration Tuning Mix (Agilent)
[2] = instrument: TW, calibrated with polyalanine and drug standards

SMILES | collision cross section (N2) ([1]; [M+Na]+) | collision cross section (N2) ([1]; [M-H]-) | collision cross section (N2) ([1]; [M+H]+) [Å²] | other results
CC(C)=CCC/C(C)=C/COP(=O)(O)OP(=O)(O)O [GERANYL-PP] | – | 167.2 Å² | – | collision cross section (N2) ([1]; [M+Na-2H]-): 173.8 Å²
COc1cc(/C=C/C(=O)O)ccc1O [FERULATE] | – | 139.8 Å² | – | –
CCCCCCSC[C@H](NC(=O)CC[C@H](N)C(=O)O)C(=O)NCC(=O)O [S-HEXYL-GLUTATHIONE] | 200.9 Å² | 189 Å² | 200.5 | collision cross section (N2) ([1]; [M+Na-2H]-): 192.4 Å²
O=C1CC[C@@H](C(=O)O)N1 [OXOPROLINE] | – | 124.1 Å² | 130.3 | –
NCCP(=O)(O)O [(2-AMINOETHYL)PHOSPHONATE] | 136.5 Å² | 120 Å² | 129 | –
CC(=O)N1CCC[C@H]1C(=O)O [N-ACETYLPROLINE] | 140.3 Å² | 133.7 Å² | – | collision cross section (N2) ([2]; [M+Na]+): 136.9 Å²
NCCC[C@@H](N)C(=O)O [D-ORNITHINE] | – | 128.3 Å² | 128.1 | –
O=C(O)CCCCCCCC(=O)O [AZELATE] | 148.4 Å² | – | – | collision cross section (N2) ([1]; [M+Na-2H]-): 141.9 Å²
CC(CCC(=O)O)C(=O)O (stereo not drawn) [2-METHYLGLUTARATE] | 137.4 Å² | 126 Å² | – | collision cross section (N2) ([1]; [M+Na-2H]-): 132.6 Å²
Cc1ccc(O)c(O)c1 [4-METHYLCATECHOL] | – | 121 Å² | – | –
Nc1ccn(C2O[C@H](CO)[C@H]3OP(=O)(O)O[C@@H]23)c(=O)n1 (stereo partly drawn) [CYTIDINE 2',3'-CYCLIC PHOSPHATE] | 167.4 Å² | 164.5 Å² | 163.3 | collision cross section (N2) ([1]; [M+H2O-H]-): 167.1 Å²; collision cross section (N2) ([1]; [M+K]+): 168 Å²; collision cross section (N2) ([1]; [M+Na-2H]-): 165 Å²
CS(=N)(=O)CCC(N)C(=O)O (stereo not drawn) [METHIONINE SULFOXIMINE] | 138.1 Å² | 136.2 Å² | 136.9 | –
O=C(O)CCCC(=O)O [GLUTARATE] | – | 121.3 Å² and 121.4 Å² | – | collision cross section (N2) ([1]; [M+Na-2H]-): 129 Å² and 129.1 Å²
Nc1ccc(C(=O)[O-])cc1 [4-AMINOBENZOATE] | – | – | 126.9 | –
CC1=C(/C=C/C(C)=C/C=C/C(C)=C/C(=O)O)C(C)(C)CCC1 [RETINOATE] | 181.9 Å² | – | – | –
N[C@@H](Cc1ccccc1)C(=O)O [PHENYLALANINE] | 138.3 Å² | 139.4 Å² | – | –
O=c1ccn([C@@H]2O[C@H](COP(=O)(O)OP(=O)(O)O)[C@@H](O)[C@H]2O)c(=O)[nH]1 [URIDINE 5'-DIPHOSPHATE] | 178.5 Å² and 181.7 Å² | 172.9 Å² | 176.9 | collision cross section (N2) ([1]; [M+Na-2H]-): 178.6 Å²
NC(=O)NCCC[C@H](N)C(=O)O [CITRULLINE] | 139.4 Å² | 135.4 Å² | 137.7 | –
NC(Cc1c[nH]c2ccc(O)cc12)C(=O)O (stereo not drawn) [5-HYDROXYTRYPTOPHAN] | 152.6 Å² | 146.9 Å² and 151.5 Å² | 154.5 | collision cross section (N2) ([1]; [M+Na-2H]-): 149.7 Å²
Cc1cc2nc3c(=O)[nH]c(=O)nc-3n(C[C@H](O)[C@H](O)[C@H](O)COP(=O)(O)OP(=O)(O)OC[C@H]3O[C@@H](n4cnc5c(N)ncnc54)[C@H](O)[C@@H]3O)c2cc1C [FAD] | 250.3 Å² | 238.7 Å² | 249 | collision cross section (N2) ([1]; [M+Na-2H]-): 256.2 Å²
O=C([O-])CCc1ccccc1O [3-(2-HYDROXYPHENYL)PROPANOATE] | – | 133.2 Å² | – | –
N[C@@H](C(=O)O)[C@@H](O)[C@H](O)[C@H](O)CO [GLUCOSAMINATE] | 146.5 Å² | 135.7 Å² | 141.8 | –
CC[C@H](C)[C@H](N)C(=O)O [ISOLEUCINE] | – | 129.3 Å² | 133 | –
NC(=O)[C@@H](N)Cc1c[nH]c2ccccc12 [L-TRYPTOPHANAMIDE] | 147.7 Å² | 143.3 Å² | 150.5 | –
O=Cc1cccc(O)c1 [3-HYDROXYBENZALDEHYDE] | – | 118 Å² | – | –
CCOC(=O)Cc1c[nH]c2ccccc12 [ETHYL 3-INDOLEACETATE] | 153.6 Å² | 145.6 Å² | 145.2 | –
CC(=O)N[C@@H]1[C@@H](O)[C@H](O)[C@@H](CO)O[C@H]1N [2-ACETAMIDO-2-DEOXY-BETA-D-GLUCOSYLAMINE] | 149.1 Å² and 157.8 Å² | 155.2 Å² | – | –

The next lines start with results.

collision cross section (N2) ([1]; [M+Na]+) | collision cross section (N2) ([1]; [M-H]-) | collision cross section (N2) ([1]; [M+H]+) [Å²] | SMILES | other results
150.4 Å² | – | – | NC(=O)CCCCC1CCSS1 (stereo not drawn) [LIPOAMIDE] | collision cross section (N2) ([2]; [M+H]+): 139.3 Å²
178.7 Å² | 179.7 Å² | – | OC[C@H]1O[C@@H](O[C@H]2[C@H](O)[C@@H](O)[C@H](O)O[C@@H]2CO)[C@H](O)[C@@H](O)[C@@H]1O [CELLOBIOSE] | collision cross section (N2) ([1]; [M+K]+): 180.9 Å²
– | – | 133.7 | NC(CS(=O)O)C(=O)O (stereo not drawn) [3-SULFINOALANINE] | –
148.3 Å² | 133.3 Å² | – | O=C(O)[C@@H](O)[C@@H](O)[C@H](O)[C@@H](O)C(=O)O [SACCHARATE] | collision cross section (N2) ([1]; [M+K]+): 148.8 Å²; collision cross section (N2) ([1]; [M+Na-2H]-): 137.3 Å²
– | 132 Å² | 133.1 | CSCC[C@H](N)C(=O)O [METHIONINE] | –
163.4 Å² | 160.9 Å² | 164.5 | CC[C@H](NC(=O)CC[C@H]([NH3+])C(=O)[O-])C(=O)NCC(=O)[O-] [OPHTHALMATE] | collision cross section (N2) ([1]; [M+Na-2H]-): 163.7 Å²
167.7 Å² | 155.1 Å² | 153.1 | Cc1cc2nc3[nH]c(=O)[nH]c(=O)c3nc2cc1C [LUMICHROME] | collision cross section (N2) ([1]; [M+H20-H]-): 160.2 Å²
211 Å² | 211.9 Å² | – | O=C(O)[C@H]1O[C@H](OP(=O)(O)OP(=O)(O)OC[C@H]2O[C@@H](n3ccc(=O)[nH]c3=O)[C@H](O)[C@@H]2O)[C@H](O)[C@@H](O)[C@@H]1O [URIDINE DIPHOSPHATE GLUCURONIC ACID] | collision cross section (N2) ([1]; [M+Na-2H]-): 204.6 Å²
– | – | 130.1 | O=C1CC[C@@H](C(=O)O)N1 [PYROGLUTAMATE] | –
148.6 Å² | 136.4 Å² | 136.6 | NC(N)=NCCC[C@H](N)C(=O)O [ARGININE] | –
198.7 Å² | 200.9 Å² | – | C[C@H](CCC(=O)O)[C@H]1CC[C@H]2[C@@H]3[C@@H](O)C[C@@H]4C[C@H](O)CC[C@]4(C)[C@H]3CC[C@]12C [URSODEOXYCHOLATE] | –
135.9 Å² | – | 124 | C[n+]1cccc(C(=O)[O-])c1 [TRIGONELLINE] | collision cross section (N2) ([2]; [M+H]+): 122.4 Å²
– | 136.3 Å² | – | O=C(O)C1=C[C@@H](O)[C@@H](O)[C@H](O)C1 [SHIKIMATE] | –
133.1 Å² | 142 Å² | 120.9 | CCC[C@H](N)C(=O)O [NORVALINE] | –
188 Å² | 184.3 Å² | 183.3 | Nc1ncnc2c1ncn2[C@@H]1O[C@H](COP(=O)(O)O)[C@@H](OP(=O)(O)O)[C@H]1O [ADENOSINE 3',5'-DIPHOSPHATE] | collision cross section (N2) ([1]; [M+Na-2H]-): 188.5 Å²
143.6 Å² | 143.8 Å² | 145.8 | N[C@@H](Cc1ccc(O)cc1)C(=O)O [TYROSINE] | –
135.8 Å² | 124.9 Å² | – | OC[C@@H](O)C(O)[C@H](O)CO [ARABITOL] | –
138.1 Å² | 149.9 Å² | 135.2 | C[Se]CCC(N)C(=O)O (stereo not drawn) [SELENOMETHIONINE] | –
140.8 Å² | 129.6 Å² | – | O=C1O[C@H]([C@@H](O)CO)[C@H](O)[C@@H]1O [L-GULONOLACTONE] | collision cross section (N2) ([1]; [M+H2O-H]-): 133.5 Å²
156.2 Å² | 154.8 Å² | 153.8 | Cn1cncc1C[C@H](NC(=O)CCN)C(=O)O [ANSERINE] | –
157.2 Å² | – | 143.9 | CN(C)C(N)=NCCC[C@H](N)C(=O)O [N,N-DIMETHYLARGININE] | –
– | 134.3 Å² | 133.4 | O=C(O)c1ccnc2ccccc12 [4-QUINOLINECARBOXYLATE] | –
150.7 Å² and 157.8 Å² | 152.5 Å² | – | CC(=O)N[C@@H]1[C@@H](O)[C@H](O)[C@@H](CO)O[C@H]1O [N-ACETYLGLUCOSAMINE] | –
